Measured values taken from article PMC10255569, “Discovery of Peptidic Ligands against the SARS-CoV-2 Spike Protein and Their Use in the Development of a Highly Sensitive Personal Use Colorimetric COVID-19 Biosensor” (ACS Sensors, 2023).
“Also recorded” adds a separate entry of the source. Non-standard residues stand in square brackets, D forms with d. Residues, ends and D or L forms follow the SMILES beside them. *: point of attachment. Biotin = O=C1N[C@H]2[C@H](CS[C@H]2CCCCC(=O)*)N1; Phe(3,5-F2) = N[C@@H](Cc1cc(F)cc(F)c1)C(=O)O; hCit = NC(=O)NCCCC[C@H](N)C(=O)O; Aad = N[C@@H](CCCC(=O)O)C(=O)O; Nva = CCC[C@H](N)C(=O)O; AEEA = NCCOCCOCC(=O)O

Target: Delta-variant SARS-CoV-2 spike protein receptor-binding domain (L452R, T478K) (Severe acute respiratory syndrome coronavirus 2, UniProt P0DTC2, L452R/T478K)
Set-up: species or system SARS-CoV-2 Delta variant

CCC[C@H](NC(=O)[C@H](CCCCNC(N)=O)NC(=O)[C@H](CCCNC(=N)N)NC(=O)[C@H](Cc1ccc(OC)cc1)NC(=O)[C@H](N)Cc1c[nH]cn1)C(=O)N[C@@H](CCCNC(=N)N)C(=O)N[C@@H](Cc1cc(F)cc(F)c1)C(=O)N[C@@H](Cc1ccccc1)C(=O)N[C@@H](CCCC(=O)O)C(=O)NCCOCCOCC(=O)NCCOCCOCC(=O)N[C@@H](CCCCNC(=O)CCCC[C@@H]1SC[C@@H]2NC(=O)N[C@@H]21)C(N)=O [L10-2] (H-[dH]Y(Me)R[hCit][Nva]R[Phe(3,5-F2)]F[Aad][AEEA][AEEA]K(Biotin)-NH2)
RMax: 0.11 ± 0.004 | binding to the Delta variant of spike protein RBD (in words): able to bind to the Delta variant of spike protein RBD with similar affinity; also recorded: can bind to S-protein from the SARS-CoV-2 Delta variant
